3 molecules from patent US9540328B2, “(−)-(2R,3S)-2-amino-3-hydroxy-3-pyridin-4-yl-1-pyrrolidin-1-yl-propan-1-one (L)-(+) tartrate salt, its method of production and use” (Allergan, Inc., priority 2013, dated 2017) can be followed below.

Structures can show the parent of a compound that is named as a salt.

Holding throughout (type): physicochemical
Data set [1] is described as follows: Differential Scanning Calorimetry (DSC) degradation.
Data set [2] in a line: TG-FTIR thermal decomposition.
Data set [3] is described as follows: Dynamic Vapor Sorption (DVS).
The nature of data set [4]: Salt form optimization study: hygroscopicity / deliquescence of salts. The text has this:
In another salt from optimization study for the dibasic drug molecule (+/−)-erythro-2-amino-3-hydroxy-3-pyridin-4-yl-1-pyrrolidin-1-yl-propan-1-one, the dihydrochloride was the first salt prepared and characterized. […] The following counterions were used: sulfuric acid, 1-hydroxy-2-naphthoic acid, methanesulfonic acid, naphthalene-2-sulfonic acid, benzenesulfonic acid, (L-) glutamic acid, malonic acid, citric acid, (−)-L-malic acid, lactic acid, ascorbic acid, and acetic acid. Of these the pursuance of mono-acetate, the naphthalene-2-sulfonate and the 1-hydroxy-2-naphthoate salts were recommended. […] The latter salt also represented a large counterion compared to the base and, especially at high doses, this was perceived as a definite disadvantage.

[5] abbreviates: sample of FIG. 11 (crystalline salt).

In the case of `N[C@@H](C(=O)N1CCCC1)[C@@H](O)c1ccncc1.O=C(O)C(O)C(O)C(=O)O` [(−)-(2R,3S)-2-amino-3-hydroxy-3-pyridin-4-yl-1-pyrrolidin-1-yl-propan-1-one (L)-(+) tartrate], the “overlapping melting and degradation temperature” value in data set [1] (DSC first scan, sample of FIG. 10 (crystalline salt)) is approximately 160 °C. The degradation temperature result is “above 118 °C” in data set [1] (DSC, amorphous sample, FIG. 16) and “above 160 °C” in data set [2] (amorphous sample, FIG. 15). Also, the decomposition temperature entry in data set [2] (sample of FIG. 9 (crystalline salt)) is “above 160 °C”. The hygroscopicity result is reported as “very hygroscopic” in data set [3] (amorphous sample, FIG. 17) and “very hygroscopic” in data set [3] (setting [5]). For the same molecule, the deliquescence entry in data set [3] (amorphous sample, FIG. 17, visually confirmed) is listed as “deliquescent”; in data set [3] (sample of FIG. 11 (crystalline salt), visually confirmed), “deliquescent”. Also, the “relative humidity above which water uptake occurs” value in data set [3] (setting [5]) is given as “above 80 % r.h”.

As for `N[C@@H](C(=O)N1CCCC1)[C@@H](O)c1ccncc1` (racemic) [dihydrochloride, (+/−)-erythro-2-amino-3-hydroxy-3-pyridin-4-yl-1-pyrrolidin-1-yl-propan-1-one], the hygroscopicity result in data set [4] is given as “hygroscopic”.

`N[C@@H](C(=O)N1CCCC1)[C@@H](O)c1ccncc1` (racemic) [acetate salt, (+/−)-erythro-2-amino-3-hydroxy-3-pyridin-4-yl-1-pyrrolidin-1-yl-propan-1-one]: the “relative humidity at which the salt deliquesced” value in data set [4] worked out at 51 % RH.
